From patent publication US11707539B2, “FAP-targeted radiopharmaceuticals and imaging agents, and uses related thereto” (Trustees of Tufts College, priority 2020, dated 2023) come the findings set out here.

The nature of this data set: Radiochemical purity by HPLC on storage at room temperature. Type of data set: physicochemical. The settings on record: 4 hours at room temperature. As to the method: The labeling efficiency was analyzed by instant thin layer chromatography (iTLC) and was typically >98%. For iTLC analysis, 1 μL of diluted labeling solution was applied to a strip of iTLC-SA chromatography paper (Agilent P/N A120B12, 114×2.5 mm) and developed in 0.1M citrate buffer (8 cm solvent migration) to assess free ^177Lu (Rf >0.5) and [^177Lu]-6555 (Rf ˜0). The iTLC strips were analyzed using an Eckert & Ziegler AR-2000 Radio-TLC Imaging Scanner. The radiochemical purity was analyzed by high performance chromatography (HPLC) and was typically >90%. Briefly, the product was analyzed using a Phenomenex Luna 3.0 μm C18(2), 100A, 150 mm×4.6 mm column. Eluent A: 50 mM ammonium acetate in water, eluent B: acetonitrile. Gradient: 2% B from 0-5 min; 2% to 26% B from 5-20 min; 26% to 98% B from 20-25 min; 98% to 2% B from 25-26 min; 2% B from 26-30 min. Flow rate: 1.0 mL/min, Radio-HPLC detector: NaI (Eckert & Zeigler FC-1000), UV: 215 nm. The radiochemical purity remained >90% for three days at room temperature.
The above depicted radiopharmaceutical [^177Lu]-6952 can be prepared as described in Example 19 using the radiochemical precursor 6952 (Example 14 above). The labeling efficiency was analyzed by instant thin layer chromatography (iTLC) and was typically >98%. […] The iTLC strips were analyzed using an Eckert & Ziegler AR-2000 Radio-TLC Imaging Scanner. The radiochemical purity was analyzed by high performance chromatography (HPLC) and was typically >90%. Briefly, the product was analyzed using a Phenomenex Luna 3.0 m C18(2), 100A, 150 mm×4.6 mm column. […]
The labeling efficiency was analyzed by instant thin layer chromatography (iTLC) and was typically >95%. […] The iTLC strips were analyzed using an Eckert & Ziegler AR-2000 Radio-TLC Imaging Scanner. The radiochemical purity was analyzed by high performance chromatography (HPLC) and was typically >95%. Briefly, the product was analyzed using a Phenomenex Luna 3.0 m C18(2), 100Å, 150 mm×4.6 mm column. […]
The labeling efficiency was analyzed by instant thin layer chromatography (iTLC) and was typically >95%. […]

Turning to `C[C@@H](NC(=O)c1ccc(CNC(=O)CN2CCN3CCN4CCN(CC2)CC(=O)[O][Ga]([O]C(=O)C3)[O]C(=O)C4)cc1)C(=O)N1CCC[C@H]1B(O)O` [[^68Ga]-6555], the radiochemical purity remained is > 95%.
